Laboratory results from PMC6662551 (Clinical and Translational Science, 2019).
Values joined by “and” are separate entries in the source; they are usually repeats but may differ in a detail not shown here. Equal entries are not always repeated. Where two headings read alike, the source gives them in different places.

Key:
[1] = test system: 3‐hydroxy‐3‐methylglutaryl coenzyme A reductase; settings: relative to pravastatin; cited from earlier work
[2] = for ratio of mean AUC0→12 in SLCO1B1 c.521CC and c.521TT: named peak only; for AUC(0-t): AUC0→12, text, pravastatin peak only
[3] = test system: OATP1B1; settings: c.521T>C carriers; cited from earlier work
[4] = test system: OATP1B1; assay type: in vivo, human; settings: human, plasma, oral; for AUC(0-t): AUClast, 0.25-12 hour; for C0: C0, plasma, baseline
[5] = assay type: in vivo, human; settings: for AUClast: 0.25-12 hour; for C0: plasma
[6] = pravastatin + cyclosporine, CC (N = 2)
[7] = pravastatin + cyclosporine, TC (N = 6)
[8] = pravastatin + cyclosporine, TT (N = 8)
[9] = pravastatin + placebo, CC (N = 2)
[10] = pravastatin + placebo, TC (N = 6)
[11] = pravastatin + cyclosporine, all genotype (N = 16)
[12] = pravastatin + placebo, TT (N = 8)
[13] = pravastatin + placebo, all genotype (N = 16)

For 3′α‐hydroxy‐pravastatin, the “inhibitory activity relative to the parent compound” value [1] is given as “one‐tenth to one‐fortieth” and the “ratio of mean AUC0→12 in SLCO1B1 c.521CC and c.521TT” value [2] is given as 1.2 fold.

For `CC(C)c1nc(N(C)S(C)(=O)=O)nc(-c2ccc(F)cc2)c1/C=C/[C@@H](O)C[C@@H](O)CC(=O)O` [rosuvastatin], the “increase in plasma levels in individuals with the OATP1B1‐Val174Ala variant” value [3] is given as 1.5–3 fold.

For `CC[C@H](C)C(=O)O[C@H]1C[C@H](O)C=C2C=C[C@H](C)[C@H](CC[C@@H](O)C[C@@H](O)CC(=O)O)[C@H]21` [pravastatin], the Tmax ([2]; human, plasma, oral, 40 mg) was 1.5 h, the AUC(0-t) ([2]; human, plasma, oral, 40 mg, pravastatin + placebo, TC) was 48 ± 23 ng·h/mL and the AUC(0-t) ([2]; human, plasma, oral, 40 mg, pravastatin + placebo, c.521‐TT) was 43 ± 15 ng·h/mL. For the same compound, the CL/F ([2]; human, plasma, oral, pravastatin + cyclosporine, CC (N = 3)) was 10.7 mL/min/kg, the CL/F ([2]; human, plasma, oral, pravastatin + cyclosporine, TC (N = 8)) was 24.2 mL/min/kg and the CL/F ([2]; human, plasma, oral, pravastatin + cyclosporine, TT (N = 9)) was 24.5 mL/min/kg. The CL/F ([2]; human, plasma, oral, pravastatin + cyclosporine, all genotype) was 22.3 mL/min/kg, the CL/F ([2]; human, plasma, oral, pravastatin + placebo, CC (N = 3)) was 27.5 mL/min/kg and the CL/F ([2]; human, plasma, oral, pravastatin + placebo, TC (N = 8)) was 90.3 mL/min/kg. For the same compound, the CL/F ([2]; human, plasma, oral, pravastatin + placebo, TT (N = 9)) was 102 mL/min/kg, the CL/F ([2]; human, plasma, oral, pravastatin + placebo, all genotype) was 86.2 mL/min/kg and the “ratio of mean AUC0→12 in SLCO1B1 c.521CC and c.521TT” value [2] was 3.6 fold. It also gave a Cmax ([2]; named peak only (not combined), pravastatin + placebo, TC (N=8)) of 31 ± 19 ng/mL, a V/F ([2]; pravastatin + cyclosporine, CC (N = 3)) of 0.85 ± 0.70 L/kg and a V/F ([2]; pravastatin + cyclosporine, TC (N = 8)) of 1.52 ± 0.54 L/kg. The V/F ([2]; pravastatin + cyclosporine, TT (N = 9)) was 1.92 ± 1.34 L/kg, the V/F ([2]; pravastatin + cyclosporine, all genotype) was 1.60 ± 1.02 L/kg and the V/F ([2]; pravastatin + placebo, CC (N = 3)) was 1.94 ± 1.37 L/kg. For the same compound, the V/F ([2]; pravastatin + placebo, TC (N = 8)) was 9.49 ± 9.08 L/kg, the V/F ([2]; pravastatin + placebo, TT (N = 9)) was 9.56 ± 8.74 L/kg and the V/F ([2]; pravastatin + placebo, all genotype) was 8.39 ± 8.39 L/kg.

Work on `O=C(O)CCCCCCCCCCCCCCC(=O)O` [HDA, hexadecanedioic acid] yielded an AUC(0-t) [4, 6] of 1.68 µM·h, an AUC(0-t) [4, 7] of 0.853 ± 0.303 µM·h and an AUC(0-t) [4, 8] of 1.07 µM·h. It also gave an AUC(0-t) [4, 9] of 1.45 µM·h, an AUC(0-t) [4, 10] of 0.506 ± 0.116 µM·h and a C0 ([4]; pravastatin + placebo, CC) of 114 ± 47.5 nM. The C0 ([4]; pravastatin + placebo, TC) was 43.1 ± 13.4 nM, the C0 ([4]; pravastatin + placebo, TT) was 52 ± 29.6 nM and the AUClast [5, 11] was 1,070 ± 357 nM·hour. The AUClast [5, 12] was 557 ± 161 nM·h, the AUClast [5, 13] was 649 ± 346 nM·h and the “C0 fold increase, pravastatin plus CsA over pravastatin plus placebo” value (shortened to “C0 fold increase, pravastatin plus CsA”) ([5]; CC) was 1.0 fold. The “AUClast fold increase, pravastatin plus CsA over pravastatin plus placebo” value (“AUClast fold increase” below) ([5]; CC (N = 2)) was 1.2 fold, the “Cavg fold increase, pravastatin plus CsA over pravastatin plus placebo” value (“Cavg fold increase, pravastatin plus CsA” below) ([5]; CC (N = 2)) was 1.2 fold and the “C0 fold increase, pravastatin plus CsA” value ([5]; TC) was 1.6 fold. The “AUClast fold increase” value ([5]; TC (N = 6)) was 1.7 fold, the “Cavg fold increase, pravastatin plus CsA” value ([5]; TC (N = 6)) was 2.0 fold and the “C0 fold increase, pravastatin plus CsA” value ([5]; TT) was 1.7 fold. The “AUClast fold increase” value ([5]; TT (N = 8)) was 2.0 fold, the “Cavg fold increase, pravastatin plus CsA” value ([5]; TT (N = 8)) was 2.2 fold and the “AUClast fold increase” value ([5]; all genotype) was 1.8 fold. For the same compound, the “Cavg fold increase, pravastatin plus CsA” value ([5]; all genotype) was 2.0 fold, the “Cmax fold increase, pravastatin plus CsA over pravastatin plus placebo” value ([5]; all genotype (N = 16)) was 2.1 fold and the “ratio of mean AUC in SLCO1B1 c.521‐CC to c.521TT” value ([5]; endogenous biomarker) was 2.6 fold. For the same compound, the C0 ([5]; 12 hours after first CsA dose, pravastatin + cyclosporine, all genotype) was 84 ± 33 nM, the C0 ([5]; baseline, pravastatin + placebo, all genotype) was 60.1 ± 37 nM and the Cmax ([5]; pravastatin + cyclosporine (N = 16)) was 155 ± 55.1 nM. It also gave a Cavg [5, 6] of 149 ± 5.0 nM, a Cavg [5, 7] of 86.9 ± 33.0 nM and a Cavg [5, 8] of 98.5 ± 27.8 nM. It also gave a Cavg [5, 11] of 100 ± 33.3 nM, a Cmax ([5]; pravastatin + placebo (N = 16)) of 90.6 ± 77.3 nM and a Cavg [5, 9] of 135 ± 46.6 nM. For the same compound, the Cavg [5, 10] was 44.0 ± 11.5 nM, the Cavg [5, 12] was 46.1 ± 14.3 nM and the Cavg [5, 13] was 56.4 ± 35.1 nM and 56.4 ± 35.1****^, ^b nM. The “increase in plasma concentration, Cmax over baseline” value ([5]; pravastatin plus placebo, individuals homozygous c.521‐CC) was “at least twofold” and the “time of peak plasma level” value ([5]; two individuals c.521‐CC) was “around 3 hours and 3.0 hours”.
